Test results published in ChEMBL document CHEMBL1629484, “1,2-diamino-ethane-substituted-6,7,8,9-tetrahydro-5H-pyrimido[4,5-d]azepines as TRPV1 antagonists with improved properties” (Bioorg Med Chem Lett, 2010).
Converted amounts (≈) assume the structure as drawn. The source made the active and inactive calls. The rule behind the calls is not given here.

Assays:
[1] = Aqueous equilibrium solubility of compound in simulated intestinal fluid at pH 6.8; assay type: physicochemical
[2] = Aqueous equilibrium solubility of compound in phosphate buffer at pH 2; assay type: physicochemical
[3] = biological target: T1, Transient receptor potential cation channel subfamily V member 1 (Rattus norvegicus, UniProt O35433); assay: Antagonist activity at rat TRPV1 expressed in HEK293 cells assessed as inhibition of capsaicin-induced intracellular Ca2+ level by FLIPR assay; assay type: functional, cell-based
[4] = biological target: T2, Transient receptor potential cation channel subfamily V member 1 (Homo sapiens, UniProt Q8NER1); assay: Antagonist activity at human TRPV1 expressed in HEK293 cells assessed as inhibition of capsaicin-induced intracellular Ca2+ level by FLIPR assay; assay type: functional, cell-based
[5] = Half life in fasted Sprague-Dawley rat at 0.5 mg/kg, iv and 2 mg/kg, po; assay type: ADME, organism-based; details: in vivo
[6] = Volume of distribution at steady state in fasted Sprague-Dawley rat at 0.5 mg/kg, iv and 2 mg/kg, po; assay type: ADME, organism-based; details: in vivo, read-out: Vdss
[7] = Clearance in fasted Sprague-Dawley rat at 0.5 mg/kg, iv and 2 mg/kg, po; assay type: ADME, organism-based; details: in vivo
[8] = Clearance in rat; assay type: ADME, organism-based; details: in vivo
[9] = system: Rattus norvegicus; assay: Analgesic activity against carrageenan-induced thermal hyperalgesia in rat assessed as maximal possible effect at 30 mg/kg, po administered 3 hrs post-carrageenan challenge; assay type: functional
[10] = system: Rattus norvegicus; assay: Analgesic activity against carrageenan-induced thermal hyperalgesia in rat at 5 mg/kg, po administered 1 hr before carrageenan challenge; assay type: functional, organism-based; design: dose 5 mg/kg
[11] = biological target: T1, Transient receptor potential cation channel subfamily V member 1; assay: Displacement of [3H]RTX from rat TRPV1 expressed in HEK cells; assay type: cell-based, HEK293
[12] = biological target: T1, Transient receptor potential cation channel subfamily V member 1; assay: Inhibition of rat TRPV1 expressed in HEK cells; assay type: cell-based, HEK293
[13] = biological target: T2, Transient receptor potential cation channel subfamily V member 1; assay: Inhibition of human TRPV1 expressed in HEK cells; assay type: cell-based, HEK293
[14] = Oral bioavailability in fasted Sprague-Dawley rat at 2 mg/kg; assay type: ADME, organism-based; details: in vivo
[15] = Tmax in fasted Sprague-Dawley rat at 2 mg/kg, po; assay type: ADME, organism-based; design: dose 2 mg/kg, route oral; details: in vivo
[16] = AUC (infinity) in fasted Sprague-Dawley rat at 2 mg/kg, po; assay type: ADME, organism-based; design: time infinity, dose 2 mg/kg, route oral; details: plasma
[17] = Cmax in fasted Sprague-Dawley rat at 2 mg/kg, po; assay type: ADME, organism-based; design: dose 2 mg/kg, route oral; details: in vivo
[18] = Terminal plasma concentration in rat at 5 mg/kg, po administered 5 hrs post-carrageenan challenge; assay type: ADME, organism-based; design: dose 5 mg/kg, route oral; details: read-out: Cp(T)
[19] = Terminal plasma concentration in rat at 30 mg/kg, po administered 5 hrs post-carrageenan challenge; assay type: ADME, organism-based; design: dose 30 mg/kg, route oral; details: read-out: Cp(T)

T1 sequence (O35433 whole entry): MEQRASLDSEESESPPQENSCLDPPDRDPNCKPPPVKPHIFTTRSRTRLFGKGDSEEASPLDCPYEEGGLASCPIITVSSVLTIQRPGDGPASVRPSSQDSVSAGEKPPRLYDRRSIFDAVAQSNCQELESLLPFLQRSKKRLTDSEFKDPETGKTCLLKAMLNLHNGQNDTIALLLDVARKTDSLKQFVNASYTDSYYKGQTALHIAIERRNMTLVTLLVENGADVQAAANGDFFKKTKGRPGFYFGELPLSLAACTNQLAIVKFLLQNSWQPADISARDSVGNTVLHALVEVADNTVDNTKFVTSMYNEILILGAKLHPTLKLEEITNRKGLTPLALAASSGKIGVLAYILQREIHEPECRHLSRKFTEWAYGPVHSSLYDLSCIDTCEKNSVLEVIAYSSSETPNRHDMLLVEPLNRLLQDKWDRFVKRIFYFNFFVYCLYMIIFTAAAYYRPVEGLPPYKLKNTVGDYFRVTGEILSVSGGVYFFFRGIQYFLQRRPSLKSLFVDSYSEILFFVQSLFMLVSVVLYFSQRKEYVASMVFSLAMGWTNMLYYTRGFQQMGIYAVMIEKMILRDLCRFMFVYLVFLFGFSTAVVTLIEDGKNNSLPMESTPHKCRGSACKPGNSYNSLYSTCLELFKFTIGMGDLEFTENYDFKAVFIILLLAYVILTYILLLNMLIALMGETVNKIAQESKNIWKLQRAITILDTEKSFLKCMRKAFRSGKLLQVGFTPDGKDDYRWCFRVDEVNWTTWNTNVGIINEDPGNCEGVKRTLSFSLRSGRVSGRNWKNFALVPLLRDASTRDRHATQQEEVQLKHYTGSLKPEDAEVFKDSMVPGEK
T2 sequence (Q8NER1 whole entry): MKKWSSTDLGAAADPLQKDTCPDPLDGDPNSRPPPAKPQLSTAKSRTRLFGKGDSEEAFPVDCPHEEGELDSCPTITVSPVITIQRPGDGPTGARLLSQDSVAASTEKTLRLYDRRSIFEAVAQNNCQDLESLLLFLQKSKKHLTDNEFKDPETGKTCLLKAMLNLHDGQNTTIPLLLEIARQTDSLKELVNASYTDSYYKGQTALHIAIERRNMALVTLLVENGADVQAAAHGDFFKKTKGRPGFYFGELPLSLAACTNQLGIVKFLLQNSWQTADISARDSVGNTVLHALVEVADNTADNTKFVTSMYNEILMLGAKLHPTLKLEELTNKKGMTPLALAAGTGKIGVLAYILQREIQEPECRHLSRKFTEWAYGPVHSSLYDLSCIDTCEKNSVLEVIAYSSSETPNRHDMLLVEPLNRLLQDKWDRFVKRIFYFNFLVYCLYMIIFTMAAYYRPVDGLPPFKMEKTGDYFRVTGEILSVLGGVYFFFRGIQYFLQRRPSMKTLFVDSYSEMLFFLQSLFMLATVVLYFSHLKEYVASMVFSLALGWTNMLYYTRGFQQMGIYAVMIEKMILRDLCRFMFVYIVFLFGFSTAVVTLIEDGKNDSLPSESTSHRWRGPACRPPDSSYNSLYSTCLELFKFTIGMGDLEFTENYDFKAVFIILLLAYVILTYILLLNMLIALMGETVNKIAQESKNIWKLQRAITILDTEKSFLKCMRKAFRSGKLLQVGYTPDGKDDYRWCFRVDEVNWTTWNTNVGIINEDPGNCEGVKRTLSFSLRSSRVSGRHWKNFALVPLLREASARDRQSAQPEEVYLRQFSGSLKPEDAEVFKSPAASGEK

| SMILES | solubility thermodynamic [1] [µg/mL] | solubility thermodynamic [2] [µg/mL] | IC50 [3] [nM] | IC50 [4] [nM] | other results |
| --- | --- | --- | --- | --- | --- |
| CN(C)CCN1CCN(c2nc3c(c(Nc4ccc(C(F)(F)F)cc4)n2)CCN(c2ncccc2C(F)(F)F)CC3)CC1 | > 243 | > 243 | 2600 | 2000 | – |
| CN1CCN(c2nc3c(c(Nc4ccc(C(F)(F)F)cc4)n2)CCN(c2ncccc2C(F)(F)F)CC3)CC1 | 193 (≈ 350 µM) | > 221 | 506 | – | – |
| FC(F)(F)c1ccc(Nc2nc(N3CCN(C4CC4)CC3)nc3c2CCN(c2ncccc2C(F)(F)F)CC3)cc1 | 9 (≈ 15.6 µM) | 230 (≈ 398 µM) | 45 | 11 | half-life [5]: 1.6 h; Vd [6]: 1 L/kg; clearance [7]: 21.7 mL/min/kg |
| COCCN1CCN(c2nc3c(c(Nc4ccc(C(F)(F)F)cc4)n2)CCN(c2ncccc2C(F)(F)F)CC3)CC1 | 6 (≈ 10.1 µM) | > 238 | 207 | 65 | – |
| CN(CC1CCCCN1C)c1nc2c(c(Nc3ccc(C(F)(F)F)cc3)n1)CCN(c1ncccc1C(F)(F)F)CC2 (stereo not drawn) | > 283 | > 283 | > 5000 | 3330 | – |
| FC(F)(F)c1ccc(Nc2nc(N3CCOCC3)nc3c2CCN(c2ncccc2C(F)(F)F)CC3)cc1 | – | – | – | – | clearance [8]: 51.7 mL/min/kg |
| OCCN1CCN(c2nc3c(c(Nc4ccc(C(F)(F)F)cc4)n2)CCN(c2ncccc2C(F)(F)F)CC3)CC1 | 4 (≈ 6.88 µM) | > 233 | 1160 | 498 | – |
| CN(C)CCN(C)c1nc2c(c(Nc3ccc(C(F)(F)F)cc3)n1)CCN(c1ncccc1C(F)(F)F)CC2 | 210 (≈ 379 µM) | > 221 | 4450 | 2670 | – |
| CC(=O)NC1CCN(c2nc3c(c(Nc4ccc(C(F)(F)F)cc4)n2)CCN(c2ncccc2C(F)(F)F)CC3)C1 (stereo not drawn) | 19 (≈ 32.8 µM) | 202 (≈ 349 µM) | 410 | 150 | – |
| FC(F)(F)c1ccc(Nc2nc(N3CCNCC3)nc3c2CCN(c2ncccc2C(F)(F)F)CC3)cc1 | 158 (≈ 294 µM) | 215 (≈ 400 µM) | > 5000 | – | – |
| CC(C)(C)OC(=O)N1CCCCC1CNc1nc2c(c(Nc3ccc(C(F)(F)F)cc3)n1)CCN(c1ncccc1C(F)(F)F)CC2 (stereo not drawn) | 3 (≈ 4.51 µM) | 3 (≈ 4.51 µM) | 230 | 250 | – |
| CC(C)N1CCN(c2nc3c(c(Nc4ccc(C(F)(F)F)cc4)n2)CCN(c2ncccc2C(F)(F)F)CC3)CC1 | 2 (≈ 3.45 µM) | > 232 | 386 | – | half-life [5]: 1.5 h; Vd [6]: 5.1 L/kg; clearance [7]: 80 mL/min/kg |
| CN1CCCCC1CNc1nc2c(c(Nc3ccc(C(F)(F)F)cc3)n1)CCN(c1ncccc1C(F)(F)F)CC2 (stereo not drawn) | 254 (≈ 438 µM) | > 277 | 2280 | 1760 | – |

Continued, in another order:

| solubility thermodynamic [1] [µg/mL] | solubility thermodynamic [2] [µg/mL] | IC50 [3] [nM] | IC50 [4] [nM] | SMILES | other results |
| --- | --- | --- | --- | --- | --- |
| 2 (≈ 3.38 µM) | > 237 | 161 | 24 | FC(F)(F)c1ccc(Nc2nc(N3CCN(C4CCC4)CC3)nc3c2CCN(c2ncccc2C(F)(F)F)CC3)cc1 | – |
| 226 (≈ 400 µM) | 204 (≈ 361 µM) | > 5000 | 3080 | CN1CCCC(Nc2nc3c(c(Nc4ccc(C(F)(F)F)cc4)n2)CCN(c2ncccc2C(F)(F)F)CC3)C1 (stereo not drawn) | – |
| 1 (≈ 1.79 µM) | 224 (≈ 400 µM) | 1340 | 476 | FC(F)(F)c1ccc(Nc2nc(NCc3ccccn3)nc3c2CCN(c2ncccc2C(F)(F)F)CC3)cc1 | – |
| 57 (≈ 101 µM) | > 226 | 1040 | 243 | CN(C)[C@@H]1CCN(c2nc3c(c(Nc4ccc(C(F)(F)F)cc4)n2)CCN(c2ncccc2C(F)(F)F)CC3)C1 | – |
| 237 (≈ 419 µM) | > 272 | > 5000 | 100 | FC(F)(F)c1ccc(Nc2nc(NCC3CCCCN3)nc3c2CCN(c2ncccc2C(F)(F)F)CC3)cc1 (stereo not drawn) | – |
| 203 (≈ 368 µM) | > 235 | > 5000 | > 5000 | FC(F)(F)c1ccc(Nc2nc(NC3CCCNC3)nc3c2CCN(c2ncccc2C(F)(F)F)CC3)cc1 (stereo not drawn) | – |
| 57 (≈ 101 µM) | > 226 | 586 | 185 | CN(C)[C@H]1CCN(c2nc3c(c(Nc4ccc(C(F)(F)F)cc4)n2)CCN(c2ncccc2C(F)(F)F)CC3)C1 | – |
| 2 (≈ 3.37 µM) | 21 (≈ 35.4 µM) | 460 | 62 | CC(=O)N(C)C1CCN(c2nc3c(c(Nc4ccc(C(F)(F)F)cc4)n2)CCN(c2ncccc2C(F)(F)F)CC3)C1 (stereo not drawn) | – |
| 6 (≈ 10.6 µM) | > 226 | 506 | 132 | CCN1CCN(c2nc3c(c(Nc4ccc(C(F)(F)F)cc4)n2)CCN(c2ncccc2C(F)(F)F)CC3)CC1 | – |
| 14 (≈ 21.5 µM) | 1 (≈ 1.53 µM) | 239 | 140 | CC(C)(C)OC(=O)N1CCCC(Nc2nc3c(c(Nc4ccc(C(F)(F)F)cc4)n2)CCN(c2ncccc2C(F)(F)F)CC3)C1 (stereo not drawn) | – |
| 211 (≈ 373 µM) | > 241 | 1540 | 3600 | CN(c1nc2c(c(Nc3ccc(C(F)(F)F)cc3)n1)CCN(c1ncccc1C(F)(F)F)CC2)C1CCCNC1 (stereo not drawn) | – |
| 11 (≈ 18.2 µM) | 221 (≈ 365 µM) | 123 | 15 | FC(F)(F)c1ccc(Nc2nc(N3CCN(C4CCCC4)CC3)nc3c2CCN(c2ncccc2C(F)(F)F)CC3)cc1 | – |
| > 232 | > 232 | > 5000 | > 5000 | CN1CCCC(N(C)c2nc3c(c(Nc4ccc(C(F)(F)F)cc4)n2)CCN(c2ncccc2C(F)(F)F)CC3)C1 (stereo not drawn) | – |
| 233 (≈ 422 µM) | > 220 | > 5000 | 2790 | CNC1CCN(c2nc3c(c(Nc4ccc(C(F)(F)F)cc4)n2)CCN(c2ncccc2C(F)(F)F)CC3)C1 (stereo not drawn) | – |
| 109 (≈ 179 µM) | 243 (≈ 400 µM) | 185 | 41 | CCC(CC)N1CCN(c2nc3c(c(Nc4ccc(C(F)(F)F)cc4)n2)CCN(c2ncccc2C(F)(F)F)CC3)CC1 | – |
| > 215 | > 215 | > 5000 | 3700 | NC1CCN(c2nc3c(c(Nc4ccc(C(F)(F)F)cc4)n2)CCN(c2ncccc2C(F)(F)F)CC3)C1 (stereo not drawn) | – |
| 4 (≈ 6.01 µM) | 1 (≈ 1.5 µM) | 97 | 53 | CN(c1nc2c(c(Nc3ccc(C(F)(F)F)cc3)n1)CCN(c1ncccc1C(F)(F)F)CC2)C1CCCN(C(=O)OC(C)(C)C)C1 (stereo not drawn) | – |
| 11 (≈ 18.5 µM) | > 237 | 89 | 11 | CC(C)CN1CCN(c2nc3c(c(Nc4ccc(C(F)(F)F)cc4)n2)CCN(c2ncccc2C(F)(F)F)CC3)CC1 | Activity [9]: 100%; Activity [10]: Active; IC50 [11]: 330 nM; IC50 [12]: 63 nM; IC50 [13]: 67 nM; bioavailability [14]: 21%; Tmax [15]: 2.3 h; AUC(0-inf) [16]: 598 ng·h/mL; Cmax [17]: 300 nM; half-life [5]: 1.8 h; Vd [6]: 0.5 L/kg; clearance [7]: 11.7 mL/min/kg; concentration at 5 h [18]: 277 nM; concentration at 5 h [19]: 1050 nM |
